Experimental findings from the Biogen ADME set (Fang et al. 2023) are described below.

In brackets after ≈: the same amount, converted by molar mass.

The conditions of the data set: for aqueous solubility: pH 6.8.

In general, aqueous solubility refers to the concentration that dissolves in the medium under given conditions. Higher therefore signals a readily soluble substance. On to `O=C(Cn1nc2n(c1=O)-c1ccccc1C1=NCCN12)N1CCc2ccccc21`, for which the MDR1-MDCK efflux ratio is 22.4 and the aqueous solubility is 5.79 µg/mL (≈ 15 µM).
`Cc1c(O)cccc1OCCN1CCOCC1` yielded an intrinsic clearance, human liver microsomes of no more than 4.74 mL/min/kg and an intrinsic clearance, rat liver microsomes of 53.7 mL/min/kg.
For `CCN(C(=O)c1cccc(-n2cccn2)c1)c1ccc(C#N)c(Cl)c1`, in that order: 79 mL/min/kg and 2060 mL/min/kg.
With `O=C(c1cccc2ccccc12)N1CCCC(C(=O)N2CCc3ccccc3C2)C1` (configuration not stated), the MDR1-MDCK efflux ratio worked out at 5.83; the intrinsic clearance, human liver microsomes was determined as 696 mL/min/kg; the intrinsic clearance, rat liver microsomes was 4470 mL/min/kg; the aqueous solubility came out at 56.4 µg/mL (≈ 142 µM).
Consider `COc1cn(-c2ccc(-n3cccn3)cc2F)nc(-c2ccnn2-c2ccccc2)c1=O`, for which the MDR1-MDCK efflux ratio came out at 10.9; the intrinsic clearance, human liver microsomes is no more than 4.74 mL/min/kg; the intrinsic clearance, rat liver microsomes stood at 28.2 mL/min/kg.
`O=C(Nc1ccc2c(c1)N(CC(F)F)C(=O)CS2)C1CC=CC1`: the MDR1-MDCK efflux ratio amounted to 0.742; the intrinsic clearance, human liver microsomes was found to be 52.6 mL/min/kg; the intrinsic clearance, rat liver microsomes turned out to be 391 mL/min/kg.
Taken in the same sequence, the figures for `CCOc1ccc(CN[C@@H]2CCC[C@H]2Cc2cc(C)no2)cc1OC` were 2.55, 61.6 mL/min/kg and 2220 mL/min/kg.
For `COc1ccc(Oc2cc(C)c(-c3csc(NC(=O)c4ccncc4)n3)c(C)c2)cc1`, the aqueous solubility was 0.31 µg/mL (≈ 0.718 µM).
In the case of `C=CC(=O)N1CCC(CNc2ncnc(N)c2-c2ccc(Oc3ccccc3)cc2)CC1`, the MDR1-MDCK efflux ratio amounted to 24.7; the fraction unbound, human plasma amounted to 0.0566; the fraction unbound, rat plasma amounted to 0.0797; the intrinsic clearance, human liver microsomes was found to be 191 mL/min/kg. The same molecule displayed an intrinsic clearance, rat liver microsomes of 1450 mL/min/kg and an aqueous solubility of 10.1 µg/mL (≈ 23.5 µM).
Regarding `CN(Cc1ccc(N)nc1)c1nc2cc(F)ccc2o1`, the MDR1-MDCK efflux ratio worked out at 33.5; the intrinsic clearance, human liver microsomes is no more than 4.74 mL/min/kg; the intrinsic clearance, rat liver microsomes came to 58.1 mL/min/kg.
Regarding `Cc1ccnc(NC(=O)CN(C)C(=O)c2ccc(Cl)cc2)c1`, the MDR1-MDCK efflux ratio is 1.12; the intrinsic clearance, human liver microsomes came to 16.5 mL/min/kg; the intrinsic clearance, rat liver microsomes was found to be 156 mL/min/kg; the aqueous solubility was 63.3 µg/mL (≈ 199 µM).
Regarding `Cc1ccc(C)c(-n2c(S)nnc2-c2ccc(O)cc2)c1`, the MDR1-MDCK efflux ratio amounted to 31.1; the intrinsic clearance, human liver microsomes stood at 5.5 mL/min/kg; the intrinsic clearance, rat liver microsomes turned out to be 164 mL/min/kg; the aqueous solubility was found to be 22.1 µg/mL (≈ 74.1 µM).
Regarding `O=C(Cc1ccc2ccccc2c1)NCCc1nc2ccccc2[nH]1`, the MDR1-MDCK efflux ratio came out at 15.4; the intrinsic clearance, human liver microsomes was 184 mL/min/kg; the intrinsic clearance, rat liver microsomes amounted to 875 mL/min/kg; the aqueous solubility was found to be 29.1 µg/mL (≈ 88.5 µM).
For `Cc1ccc(-n2cc(C(=O)NCCN(C)C)nn2)cc1C`, in that order: 3.18, no more than 4.74 mL/min/kg, 189 mL/min/kg and 28.4 µg/mL (≈ 98.9 µM).
For `Cn1cncc1CCNC(=O)[C@H]1CC1(C)C`, in that order: 8.23, no more than 4.74 mL/min/kg, no more than 10.7 mL/min/kg and 28.8 µg/mL (≈ 130 µM).
As to `CCc1nc(CNc2ccc(C#N)nc2)cs1`, the MDR1-MDCK efflux ratio was 0.556; the intrinsic clearance, human liver microsomes was no more than 4.74 mL/min/kg; the intrinsic clearance, rat liver microsomes stood at 109 mL/min/kg.
Molecule `CCc1noc(-c2ccc(C)c(N)c2)n1` came in with an intrinsic clearance, human liver microsomes of 209 mL/min/kg and an intrinsic clearance, rat liver microsomes of 196 mL/min/kg.
Taken in the same sequence, the figures for `Cc1ccccc1S(=O)(=O)N[C@@H]1CC[C@@H](O)[C@@H]1O` were no more than 4.74 mL/min/kg and 17.7 mL/min/kg.
Consider `CN(C)C(C)(C)CNc1ncnc2ccccc12`, for which the MDR1-MDCK efflux ratio worked out at 2.86; the intrinsic clearance, human liver microsomes was no more than 4.74 mL/min/kg; the intrinsic clearance, rat liver microsomes is 293 mL/min/kg; the aqueous solubility is 39.1 µg/mL (≈ 160 µM).
The molecule `N#Cc1cc(F)ccc1Cn1ccnc1-c1ccccn1` yielded an intrinsic clearance, human liver microsomes of 20.5 mL/min/kg and an intrinsic clearance, rat liver microsomes of 415 mL/min/kg.
Regarding `c1ccc(-n2ncc3c(-n4ccnc4)ncnc32)cc1`, the MDR1-MDCK efflux ratio is 0.618; the intrinsic clearance, human liver microsomes stood at 16 mL/min/kg; the intrinsic clearance, rat liver microsomes was 376 mL/min/kg; the aqueous solubility amounted to 4.97 µg/mL (≈ 18.9 µM).
`O=S(=O)(c1cn[nH]c1)N1CCCC(c2cccc(-c3cccc(Cl)c3)n2)C1` (configuration not stated): the MDR1-MDCK efflux ratio was determined as 3; the intrinsic clearance, human liver microsomes was found to be 52.6 mL/min/kg; the intrinsic clearance, rat liver microsomes was 394 mL/min/kg; the aqueous solubility was 1.45 µg/mL (≈ 3.6 µM).
Regarding `CN(C)C(=O)c1sc2nc(C3(C)CCN(c4ncccn4)CC3)ccc2c1N`, the MDR1-MDCK efflux ratio is 1.25; the intrinsic clearance, human liver microsomes stood at 32 mL/min/kg; the intrinsic clearance, rat liver microsomes worked out at 111 mL/min/kg; the aqueous solubility amounted to 65.8 µg/mL (≈ 166 µM).
Turning to `O=C(COCc1nc2ccccc2s1)N1CCC(n2c(=O)[nH]c3ccccc32)CC1`, the intrinsic clearance, human liver microsomes was 68.6 mL/min/kg and the intrinsic clearance, rat liver microsomes came out at 1020 mL/min/kg.
For `Cc1nc(NCc2ccc(F)c(Cl)c2)n(C)n1`, the MDR1-MDCK efflux ratio turned out to be 0.789; the intrinsic clearance, human liver microsomes is 7.77 mL/min/kg; the intrinsic clearance, rat liver microsomes came out at 35.6 mL/min/kg; the aqueous solubility was 43.7 µg/mL (≈ 172 µM).
Regarding `Cc1cc(Nc2nnc(C)s2)cc(C2CN(C(=O)Cc3csc(C)n3)CCO2)n1` (configuration not stated), the MDR1-MDCK efflux ratio was 35.5; the intrinsic clearance, human liver microsomes turned out to be 18.7 mL/min/kg; the intrinsic clearance, rat liver microsomes came out at 103 mL/min/kg.
In the case of `CC(C)NC(=O)c1cn(-c2ccccc2)nc1-c1ccccc1`, the MDR1-MDCK efflux ratio turned out to be 0.459 and the aqueous solubility was found to be 0.22 µg/mL (≈ 0.72 µM).
With `CN(CC(N)=O)Cc1cc2c(cc1Br)OCO2`, the MDR1-MDCK efflux ratio was 0.761; the intrinsic clearance, human liver microsomes was found to be 10.4 mL/min/kg; the intrinsic clearance, rat liver microsomes worked out at 324 mL/min/kg; the aqueous solubility turned out to be 69.7 µg/mL (≈ 231 µM).
Take `O=C(O)c1ccc(-c2c[nH]c3ncc(-c4ccccc4)cc23)cc1C1CCCC1`: the MDR1-MDCK efflux ratio is 1.54 and the aqueous solubility worked out at 0.41 µg/mL (≈ 1.07 µM).
Turning to `Cc1cc(Nc2ncccn2)cc(C2CCCN(CC(=O)Nc3ccc(F)cc3)C2)n1` (configuration not stated), the MDR1-MDCK efflux ratio stood at 8.32; the intrinsic clearance, human liver microsomes is 64.4 mL/min/kg; the intrinsic clearance, rat liver microsomes came out at 456 mL/min/kg.
As for `CC(C)c1cnn2c(NCc3ccccc3)cc(NCCCCCCN)nc12`, the MDR1-MDCK efflux ratio was 41.3; the intrinsic clearance, human liver microsomes stood at 7.76 mL/min/kg; the intrinsic clearance, rat liver microsomes stood at 210 mL/min/kg; the aqueous solubility amounted to 50 µg/mL (≈ 131 µM).
Regarding `Cc1ccc(-c2ccc(NC(=O)c3ncoc3-c3ccccc3)cc2)o1`, the MDR1-MDCK efflux ratio was found to be 0.447 and the aqueous solubility amounted to 0.37 µg/mL (≈ 1.07 µM).
Take `Cc1cccn(Cc2cccnc2)c1=O`: the MDR1-MDCK efflux ratio was determined as 0.609; the intrinsic clearance, human liver microsomes is no more than 4.74 mL/min/kg; the intrinsic clearance, rat liver microsomes is no more than 10.7 mL/min/kg; the aqueous solubility amounted to 47 µg/mL (≈ 235 µM).
Taken in the same sequence, the figures for `Cc1cccc(OC2CCN(CC(N)=O)CC2)c1` were 0.636, no more than 4.74 mL/min/kg, 67.2 mL/min/kg and 79 µg/mL (≈ 318 µM).
Consider `Cc1nc(-c2ccccc2)c(C(=O)Nc2ccccc2)s1`, for which the MDR1-MDCK efflux ratio worked out at 0.571 and the aqueous solubility was 0.9 µg/mL (≈ 3.06 µM).
For the molecule `Cc1cc2nc(Sc3nnc(C)n3C)c3ccccc3n2n1`, the MDR1-MDCK efflux ratio turned out to be 11.3; the intrinsic clearance, human liver microsomes is no more than 4.74 mL/min/kg; the intrinsic clearance, rat liver microsomes worked out at 35 mL/min/kg.
As to `Cc1cnc(NCc2ccccc2-n2ccnc2)nc1N(C)C`, the MDR1-MDCK efflux ratio was found to be 11.3; the intrinsic clearance, human liver microsomes is 33.7 mL/min/kg; the intrinsic clearance, rat liver microsomes is 486 mL/min/kg; the aqueous solubility came out at 52.2 µg/mL (≈ 169 µM).
`CN(Cc1nc2ccccc2n1C)c1ccnc(-c2ccccc2)n1` yielded an intrinsic clearance, human liver microsomes of 105 mL/min/kg and an intrinsic clearance, rat liver microsomes of 1740 mL/min/kg.
The molecule `CC(C)(C)c1ccc(-c2nc3n(c(=O)c2C#N)CCS3)cc1` registered a fraction unbound, human plasma of 0.0539; a fraction unbound, rat plasma of 0.0286; an intrinsic clearance, human liver microsomes of 8.57 mL/min/kg; an intrinsic clearance, rat liver microsomes of 191 mL/min/kg. The same molecule showed an aqueous solubility of 2.5 µg/mL (≈ 8.03 µM).
With `O=C(N[C@H](CO)CC1CCCCC1)c1cccc(-c2cnccn2)c1`, the intrinsic clearance, human liver microsomes was found to be 198 mL/min/kg and the intrinsic clearance, rat liver microsomes is 4260 mL/min/kg.
In turn, `O=C(NCc1ccc(O)c(O)c1)c1ccc2ccccc2n1` came in with an intrinsic clearance, human liver microsomes of no more than 4.74 mL/min/kg; an intrinsic clearance, rat liver microsomes of 315 mL/min/kg; an aqueous solubility of 55.4 µg/mL (≈ 188 µM).
`O=C(O)c1c(O)c(Cc2ccc(Cl)cc2)nc2c3c(ccc12)CCCC3` returned an aqueous solubility of 0.79 µg/mL (≈ 2.15 µM).
`COc1cc(CCNC(=O)c2nc3cccc(C)n3c2F)cc(OC)c1` registered an intrinsic clearance, human liver microsomes of 81.6 mL/min/kg; an intrinsic clearance, rat liver microsomes of 821 mL/min/kg; an aqueous solubility of 39.5 µg/mL (≈ 111 µM).
Regarding `O=S(=O)(c1cccc2c(O)nccc12)N1CCCNCC1`, the MDR1-MDCK efflux ratio is 8.23; the fraction unbound, human plasma was found to be 0.708; the fraction unbound, rat plasma is 0.979; the intrinsic clearance, human liver microsomes was no more than 4.74 mL/min/kg. Moreover, the intrinsic clearance, rat liver microsomes was 191 mL/min/kg.
On to `Cc1cccc(NC(=O)CSc2nncs2)c1`, for which the MDR1-MDCK efflux ratio was found to be 0.51; the intrinsic clearance, human liver microsomes worked out at 22.6 mL/min/kg; the intrinsic clearance, rat liver microsomes came to 278 mL/min/kg.
Take `O=C(NCc1ccc(F)cc1)C1CCN(C(=O)/C=C/c2ccccc2)CC1`: the MDR1-MDCK efflux ratio is 6.17; the intrinsic clearance, human liver microsomes was no more than 4.74 mL/min/kg; the intrinsic clearance, rat liver microsomes was found to be 133 mL/min/kg; the aqueous solubility came to 8.26 µg/mL (≈ 22.5 µM).
`Cn1nc(-c2cc(F)cc(F)c2)cc1N`: the MDR1-MDCK efflux ratio came to 0.607; the intrinsic clearance, human liver microsomes turned out to be 43.8 mL/min/kg; the intrinsic clearance, rat liver microsomes was 48.7 mL/min/kg.
With `CSCc1csc(NC(C)=O)n1`, the MDR1-MDCK efflux ratio was 0.631; the intrinsic clearance, human liver microsomes amounted to 19.2 mL/min/kg; the intrinsic clearance, rat liver microsomes was 248 mL/min/kg; the aqueous solubility turned out to be 27.9 µg/mL (≈ 138 µM).
